Data published in ChEMBL document CHEMBL4811222, “Antitumor Activity of Asperphenin B by Induction of Apoptosis and Regulation of Glyceraldehyde-3-phosphate Dehydrogenase in Human Colorectal Cancer Cells” (J Nat Prod, 2021).
Calls of active or inactive are those of the source. No cut-off for these calls is given here.

Legend:
RKO [1] = experiment: Antiproliferative activity against human RKO cells assessed as inhibition of cell growth incubated for 72 hrs by SRB assay; type: functional, cell-based
HCT-116 = experiment: Antiproliferative activity against human HCT-116 cells assessed as inhibition of cell growth incubated for 72 hrs by SRB assay; type: functional, cell-based; settings: HCT-116, 72 h
SW480 = experiment: Antiproliferative activity against human SW480 cells assessed as inhibition of cell growth incubated for 72 hrs by SRB assay; type: functional, cell-based; settings: SW480, 72 h
LS174T = experiment: Antiproliferative activity against human LS174T cells assessed as inhibition of cell growth incubated for 72 hrs by SRB assay; type: functional, cell-based
CCD-18Co = experiment: Antiproliferative activity against human CCD-18Co cells assessed as inhibition of cell growth incubated for 72 hrs by SRB assay; type: cell-based
RKO [2] = experiment: Induction of cell cycle arrest in human RKO cells assessed as accumulation at sub-G1 phase at 1.25 uM after 24 hrs by RNase A/propidium iodide staining based flow cytometric analysis (reference value: 0.40 %); type: functional
RKO [3] = experiment: Induction of cell cycle arrest in human RKO cells assessed as accumulation at G2/M phase at 1.25 uM after 24 hrs by RNase A/propidium iodide staining based flow cytometric analysis (reference value: 24.38 %); type: functional
RKO [4] = experiment: Induction of cell cycle arrest in human RKO cells assessed as accumulation at sub-G1 phase at 2.5 uM after 24 hrs by RNase A/propidium iodide staining based flow cytometric analysis (reference value: 0.40 %); type: functional
RKO [5] = experiment: Induction of cell cycle arrest in human RKO cells assessed as accumulation at G2/M phase at 2.5 uM after 24 hrs by RNase A/propidium iodide staining based flow cytometric analysis (reference value: 24.38 %); type: functional
RKO [6] = experiment: Induction of cell cycle arrest in human RKO cells assessed as accumulation at S phase at 5 uM after 24 hrs by RNase A/propidium iodide staining based flow cytometric analysis (reference value: 24.20 %); type: functional
RKO [7] = experiment: Induction of cell cycle arrest in human RKO cells assessed as accumulation at G2/M phase at 5 uM after 24 hrs by RNase A/propidium iodide staining based flow cytometric analysis (reference value: 24.38 %); type: functional
RKO [8] = experiment: Induction of cell cycle arrest in human RKO cells assessed as upregulation of phospho-Chk1 expression at 1.25 to 5 uM measured after 24 hrs by Western blot analysis; type: functional, cell-based; settings: dose 1.25-5 µM
RKO [9] = experiment: Induction of cell cycle arrest in human RKO cells assessed as upregulation of phospho-Chk2 expression at 1.25 to 5 uM measured after 24 hrs by Western blot analysis; type: functional, cell-based; settings: dose 1.25-5 µM
RKO [10] = experiment: Induction of cell cycle arrest in human RKO cells assessed as inactivation of Cdc25C protein at 1.25 to 5 uM measured after 24 hrs by Western blot analysis; type: functional, cell-based; settings: dose 1.25-5 µM
RKO [11] = experiment: Induction of cell cycle arrest in human RKO cells assessed as upregulation of cyclin B1 expression measured after 24 hrs by Western blot analysis; type: functional, cell-based; settings: dose 1.25-5 µM
RKO [12] = experiment: Induction of cell cycle arrest in human RKO cells assessed as upregulation of p-Cdc2 at Y15 residue expression measured after 24 hrs by Western blot analysis; type: functional, cell-based; settings: dose 1.25-5 µM
RKO [13] = experiment: Induction of cell cycle arrest in human RKO cells assessed as accumulation at sub-G1 phase at 2.5 uM after 12 hrs by RNase A/propidium iodide staining based flow cytometric analysis (reference value: 0.89 %); type: functional
RKO [14] = experiment: Induction of cell cycle arrest in human RKO cells assessed as accumulation at G0/G1 phase at 2.5 uM after 12 hrs by RNase A/propidium iodide staining based flow cytometric analysis (reference value: 60.58 %); type: functional
RKO [15] = experiment: Induction of cell cycle arrest in human RKO cells assessed as accumulation at S phase at 2.5 uM after 12 hrs by RNase A/propidium iodide staining based flow cytometric analysis (reference value: 13.33 %); type: functional
RKO [16] = experiment: Induction of cell cycle arrest in human RKO cells assessed as accumulation at G2/M phase at 2.5 uM after 24 hrs by RNase A/propidium iodide staining based flow cytometric analysis (reference value: 24.63 %); type: functional
RKO [17] = experiment: Induction of cell cycle arrest in human RKO cells assessed as accumulation at G0/G1 phase at 2.5 uM after 36 hrs by RNase A/propidium iodide staining based flow cytometric analysis (reference value: 60.58 %); type: functional
RKO [18] = experiment: Induction of cell cycle arrest in human RKO cells assessed as accumulation at sub-G1 phase at 2.5 uM after 48 hrs by RNase A/propidium iodide staining based flow cytometric analysis (reference value: 0.89 %); type: functional
RKO [19] = experiment: Induction of cell cycle arrest in human RKO cells assessed as accumulation at G0/G1 phase at 2.5 uM after 48 hrs by RNase A/propidium iodide staining based flow cytometric analysis (reference value: 60.58 %); type: functional
RKO [20] = experiment: Induction of cell cycle arrest in human RKO cells assessed as accumulation at S phase at 2.5 uM after 48 hrs by RNase A/propidium iodide staining based flow cytometric analysis (reference value: 13.33 %); type: functional
RKO [21] = experiment: Induction of cell cycle arrest in human RKO cells assessed as accumulation at G2/M phase at 2.5 uM after 48 hrs by RNase A/propidium iodide staining based flow cytometric analysis (reference value: 24.63 %); type: functional
RKO [22] = experiment: Induction of apoptosis in human RKO cells assessed as increase in cleaved caspase 9 expression at 2.5 uM measured upto 48 hrs by Western blotting analysis; type: functional, cell-based; settings: time hrs <=48
RKO [23] = experiment: Induction of apoptosis in human RKO cells assessed as increase in cleaved caspase 3 expression at 2.5 uM measured upto 48 hrs by Western blotting analysis; type: functional, cell-based; settings: time hrs <=48
RKO [24] = experiment: Induction of apoptosis in human RKO cells assessed as total apoptotic cells at 5 uM after 48 hrs by Annexin V/PI staining based flow cytometric analysis; type: functional
[25] = biological target: Glyceraldehyde-3-phosphate dehydrogenase (Homo sapiens) (UniProt P04406); experiment: Inhibition of GAPDH activity (unknown origin) after 1 hr; settings: dose 0.01-10 µM
RKO [26] = experiment: Induction of apoptosis in human RKO cells assessed as modulation of survivin expression level after 48 hrs by Western blotting analysis; type: functional, cell-based; settings: dose 2.5-10 µM
RKO [27] = experiment: Antiproliferative activity against human RKO cells over expressing GAPDH at 1 to 8 uM after 72 hrs by SRB assay; type: functional, cell-based; settings: dose 1-8 µM
RKO [28] = experiment: Antitumor activity against human RKO cells implanted in BALB/c nude mouse assessed as suppression of Ki67 expression level in tumor lysates at 4 to 8 mg/kg, ip administered three times per week for 21 days by Western blotting analysis; type: functional, organism-based; settings: Neoplasm, dose 4-8 mg/kg, time 21.0 day

Sequence of Glyceraldehyde-3-phosphate dehydrogenase (Homo sapiens) (P04406 2-335 limits assumed): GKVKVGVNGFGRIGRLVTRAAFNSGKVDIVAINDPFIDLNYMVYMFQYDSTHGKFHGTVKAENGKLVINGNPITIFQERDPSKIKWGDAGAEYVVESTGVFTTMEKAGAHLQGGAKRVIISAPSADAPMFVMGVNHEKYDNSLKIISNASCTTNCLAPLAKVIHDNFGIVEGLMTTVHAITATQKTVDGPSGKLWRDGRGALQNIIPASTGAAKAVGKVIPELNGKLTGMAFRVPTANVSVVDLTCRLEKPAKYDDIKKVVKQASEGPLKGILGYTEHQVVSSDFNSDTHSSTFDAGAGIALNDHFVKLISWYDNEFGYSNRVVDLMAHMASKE

## CCCCCCCCC[C@@H](O)CC(=O)N[C@@H](CC(N)=O)C(=O)N[C@@H](CCC(N)=O)C(=O)N[C@H](CC(=O)c1cc(C)cc(O)c1C(=O)c1c(O)cccc1O)CC(C)C
RKO [1]
  Activity: Dose-Dependent Effect
  IC50: 0.93 µM
HCT-116
  IC50: 3.12 µM
SW480
  IC50: 2.37 µM
LS174T
  IC50: 6.36 µM
CCD-18Co
  IC50: 39.1 µM
RKO [2]
  Activity: 0.41%
RKO [3]
  Activity: 29.42%
RKO [4]
  Activity: 0.56%
RKO [5]
  Activity: 44.01%
RKO [6]
  Activity: 22.13%
RKO [7]
  Activity: 51.77%
RKO [8]
  Activity: Active
RKO [9]
  Activity: Active
RKO [10]
  Activity: Active
RKO [11]
  Activity: Dose-Dependent Effect
RKO [12]
  Activity: Dose-Dependent Effect
RKO [13]
  Activity: 0.88%
RKO [14]
  Activity: 54.66%
RKO [15]
  Activity: 16.82%
RKO [16]
  Activity: 48.54%
RKO [17]
  Activity: 22.38%
RKO [18]
  Activity: 17.94%
RKO [19]
  Activity: 30.27%
RKO [20]
  Activity: 10.43%
RKO [21]
  Activity: 41.66%
RKO [22]
  Activity: Active
RKO [23]
  Activity: Active
RKO [24]
  Activity: 36.58%
[25]
  inhibition: Dose-Dependent Effect
RKO [26]
  Activity: Dose-Dependent Effect
RKO [27]
  Activity: Active
RKO [28]
  Activity: Active
